Results taken from patent publication US11639332B2, “Methods and compositions of isoindoline-1,3-dione and isoindole prodrugs useful for treating cancer, ulcerative colitis and related inflammatory diseases” (AMGEN (EUROPE) GMBH, priority 2018, dated 2023).
Values joined by “and” are separate entries in the source; they are usually repeats but may differ in a detail not shown here. Equal entries are not always repeated.

System: Trinitrobenzenesulfonic Acid (TNBS) Rat Model of Colonic Inflammation
Test: Trinitrobenzenesulfonic acid (TNBS) rat model of colonic inflammation, oral treatment Days 1-6, evaluation Day 7
Format: in vivo, Sprague-Dawley rats
Set-up: key to Average Colonic Score: sum of adhesions, strictures, ulcers and wall thickness scores
Settings: for Average # Ulcers / Average Colon Length / Average Colon Weight / Average Colonic Score / Average Ratio (colon length/colon weight) / Average Ulcer Length / Average Wall Thickness / Average Adhesions / Average Colon Wall Thickness, score / Average Strictures / Average Ulcers, score / Average Rat Weight: group mean; for Average # Ulcers / Average Colon Length / Average Colon Weight / Average Colonic Score / Average Ratio (colon length/colon weight) / Average Ulcer Length / Average Wall Thickness / Average Adhesions / Average Colon Wall Thickness, score / Average Strictures / Average Ulcers, score / # Ulcers / Colon Length / Colon Weight / Ratio (colon length/colon weight) / Ulcer Length / Wall Thickness / Colon Wall Thickness, score / Ulcers, score / Strictures / Adhesions / Colonic Score: Day 7; for Average Adhesions / Average Colon Wall Thickness, score: score 0-2; for Average Strictures / Average Ulcers, score: score 0-3; for # Ulcers / Colon Length / Colon Weight / Ratio (colon length/colon weight) / Ulcer Length / Wall Thickness / Colon Wall Thickness, score / Ulcers, score / Strictures / Adhesions / Colonic Score / Rat Weight: individual rats; for Colon Wall Thickness, score: less than 1 mm=0, 1-3 mm=1, >3 mm=2; for Ulcers, score: none=0, linear ulceration <1 cm=1, two linear ulcers <1 cm=2, more sites or one large ulcer=3; for Strictures: score none=0, mild=1, moderate=2, severe, proximal dilatation=3; for Adhesions: score none=0, minimal=1, involving several bowel loops=2; for Colonic Score: sum of adhesions, strictures, ulcers and wall thickness scores
Description: In Vivo Efficacy of PDE4 Inhibitor Prodrug in the Trinitrobenzenesulfonic Acid (TNBS) Rat Model of Colonic Inflammation
2. 1.62 g of prodrug from Example 2 (WB301), lot 2 (MW 587.12) in a clear 20 mL glass vial (orange material) which was stored at 4-8° C.
38 Sprague-Dawley rats (Harlan Sprague-Dawley, Inc. male, PO #599229, R #3450, 200-220 g) were received, individually examined and housed in nine cages of four rats each and one cage containing two rats. No clinical signs of disease or distress were observed. The rats were placed in quarantine with daily inspections. The rats were ear notched (SOP 800) for identification purposes, weighed (RESULTS), and sorted into four treatment groups of eight rats each based upon average body weight. The rats were individually examined and found to be free of any clinical signs of disease or distress. No deaths were recorded during the quarantine period. The rats were released to routine maintenance.
A 16 mg/ml TNBS solution was prepared be adding 2.729 ml picrylsulfonic acid solution (1 M, FLU KA, Cat. 92822, lot CDBB6609V) to 22.271 ml de-ionized water (dH20) and 25 ml 100% ethanol (200 proof, Sigma, Cat. E7023, lot SHBH3633V).
The rats were weighed (RESULTS), anesthetized (SOP1810) and Groups 1-4 were intra-rectally instilled with 4 ml/kg TNBS solution (64 mg/kg), the anus was pinched closed and the rat held inverted for one minute.
400 mg (-)riboflavin was dissolved in 40 ml DMSO (Sigma, Cat. D5879, lot 16K0127) by sonication in a 40° C. water bath for 20 minutes in an amber glass bottle, followed by storage at room temperature overnight to prepare a 10 mg/ml yellow solution.
135 mg NaOH (Fisher Scientific, Cat. S320, lot 066620) was dissolved in 100 ml dH2O to prepare a 1.35 mg/ml solution. 128.46 mg prednisolone 21-hemisuccinate sodium salt (Sigma, Cat. P4153, lot BCBB6136V, salt factor 1.339) was dissolved in 9.59 ml (-)riboflavin/DMSO followed by addition of 9.59 ml PEG400 (Sigma, Cat. 91893, lot BCBB7720). 28.781 aqueous NaOH was added with sonication to prepare a 2 mg/ml solution for Group 4. 44 mg WB301 was vortexed in 2.19 ml (-)riboflavin/DMSO to yield an orange solution followed by addition of 2.19 ml PEG400. 6.621 ml aqueous NaOH was added with sonication to prepare a 4 mg/ml solution for Group 1. 132 mg WB301 was vortexed in 2.19 ml (-)riboflavin/DMSO to yield an orange solution followed by addition of 2.19 ml PEG400. 6.621 ml aqueous NaOH was added with sonication to prepare a 12 mg/ml solution for Group 2. 6.6 mg apremilast was vortexed in 2.2 ml (-)riboflavin/DMSO to yield an orange solution followed by addition of 6.6 ml PEG400. 2.2 ml dH2O was added to prepare a 0.6 mg/ml solution for Group 3.
The rats were weighed (RESULTS) and daily oral (PO, SOP 1651) dosing at 5 ml/kg was initiated as in TABLE 1.
The rats were weighed (RESULTS) and the animals were dosed as described above daily. WB301 and apremilast solutions were prepared fresh daily as described above.
The rats were weighed (RESULTS) anesthetized, a midline incision was made in the abdomen and the colon was evaluated for adhesions and stricture (RESULTS). The colon was removed and the length recorded (RESULTS). A midline incision was made the entire length of the colon, the contents removed and the colon weight and colon wall thickness recorded (RESULTS). A section of the colon was preserved in 20 volumes of 10% neutral buffered formalin (Richard-Allan Scientific, Cat. 5701, lot 378532, exp07/2020). The carcasses were disposed of.
3) involving several bowel loops=2
4) severe, proximal dilatation=3
2) linear ulceration <1 cm=1
3) two linear ulcers <1 cm=2
4) more sites of ulceration or one large ulcer=3

[1] = Group 1, 20 mg/kg once daily oral, starting 24 hours after TNBS
[2] = Group 2, 60 mg/kg once daily oral
[3] = Group 2, 60 mg/kg PO daily, study day 0, day of TNBS, before dosing
[4] = Group 2, 60 mg/kg PO daily, study day 1, before first dose
[5] = Group 2, 60 mg/kg PO daily, study day 2
[6] = Group 2, 60 mg/kg PO daily, study day 3
[7] = Group 2, 60 mg/kg PO daily, study day 4
[8] = Group 2, 60 mg/kg PO daily, study day 5
[9] = Group 2, 60 mg/kg PO daily, study day 6
[10] = Group 2, 60 mg/kg PO daily, study day 7
[11] = Group 2, 60 mg/kg PO daily, study day −3, before TNBS and dosing

Nc1ccc(O)c(C(=O)O)c1 [Example 5-ASA, 5-aminosalacyclic acid, reference compound]
activity in the TNBS model (rat TNBS model, stated without data): inactive

CCOc1cc([C@@H](CS(C)(=O)=O)N2C(=O)c3cccc(/N=N/c4ccc(O)c(C(=O)O)c4)c3C2=O)ccc1OC [WB301]
effect on TNBS-induced damage across doses (20 and 60 mg/kg once daily oral, starting 24 hours after TNBS): dose-dependent reduction in the TNBS-induced damage | amelioratory effect on TNBS-induced damage [1]: no apparent amelioratory effect was observed | weight loss [1]: 15% | macroscopic disease scores [2]: improvement of the macroscopic disease scores | study day on which rats began to recover from TNBS-induced weight loss [2]: 6 days | reduction in overall colonic score (Group 2, 60 mg/kg once daily oral, assuming a colonic score of 10 for vehicle-treated rats): 25% | stool observation in cages/bedding (Group 2, 60 mg/kg once daily oral, starting DAY 4, indicative of partial colon function): Diarrhea was observed in the bedding | Average # Ulcers (Group 1, 20 mg/kg PO daily): 1 | Average Colon Length (Group 1, 20 mg/kg PO daily): 11.4 cm | Average Colon Weight (Group 1, 20 mg/kg PO daily): 6.652 g | Average Colonic Score (Group 1, 20 mg/kg PO daily): 9.1 | Average Ratio (colon length/colon weight) (Group 1, 20 mg/kg PO daily): 1.915 cm/g | Average Ulcer Length (Group 1, 20 mg/kg PO daily): 6.3 cm | Average Wall Thickness (Group 1, 20 mg/kg PO daily): 3.4 mm | Average Adhesions (Group 1, 20 mg/kg PO daily): 1.5 | Average Colon Wall Thickness, score (Group 1, 20 mg/kg PO daily): 1.8 | Average Strictures (Group 1, 20 mg/kg PO daily): 2.9 | Average Ulcers, score (Group 1, 20 mg/kg PO daily): 3.0 | Average Rat Weight (Group 1, 20 mg/kg PO daily, study day 0, day of TNBS, before dosing): 219 g | Average Rat Weight (Group 1, 20 mg/kg PO daily, study day 1, before first dose): 213 g | Average Rat Weight (Group 1, 20 mg/kg PO daily, study day 2): 203 g | Average Rat Weight (Group 1, 20 mg/kg PO daily, study day 3): 197 g | Average Rat Weight (Group 1, 20 mg/kg PO daily, study day 4): 195 g | Average Rat Weight (Group 1, 20 mg/kg PO daily, study day 5): 189 g | Average Rat Weight (Group 1, 20 mg/kg PO daily, study day 6): 189 g | Average Rat Weight (Group 1, 20 mg/kg PO daily, study day 7): 186 g | Average Rat Weight (Group 1, 20 mg/kg PO daily, study day −3, before TNBS and dosing): 215 g | Average # Ulcers (Group 2, 60 mg/kg PO daily): 1 | Average Colon Length (Group 2, 60 mg/kg PO daily): 14.4 cm | Average Colon Weight (Group 2, 60 mg/kg PO daily): 4.604 g | Average Colonic Score (Group 2, 60 mg/kg PO daily): 7.5 | Average Ratio (colon length/colon weight) (Group 2, 60 mg/kg PO daily): 3.891 cm/g | Average Ulcer Length (Group 2, 60 mg/kg PO daily): 5.6 cm | Average Wall Thickness (Group 2, 60 mg/kg PO daily): 2.6 mm | Average Adhesions (Group 2, 60 mg/kg PO daily): 1.3 | Average Colon Wall Thickness, score (Group 2, 60 mg/kg PO daily): 1.1 | Average Strictures (Group 2, 60 mg/kg PO daily): 2.1 | Average Ulcers, score (Group 2, 60 mg/kg PO daily): 3.0 | Average Rat Weight [3]: 216 g | Average Rat Weight [4]: 207 g | Average Rat Weight [5]: 200 g | Average Rat Weight [6]: 193 g | Average Rat Weight [7]: 192 g | Average Rat Weight [8]: 191 g | Average Rat Weight [9]: 195 g | Average Rat Weight [10]: 196 g | Average Rat Weight [11]: 215 g | # Ulcers (Group 1, 20 mg/kg PO daily): 1 | Colon Length (Group 1, 20 mg/kg PO daily): 12.0 cm and 10.0 cm and 10.5 cm and 11.0 cm (3×) and 12.5 cm and 13.5 cm | Colon Weight (Group 1, 20 mg/kg PO daily): 9.124 g and 7.629 g and 3.180 g and 4.920 g and 9.000 g and 8.300 g and 6.200 g and 4.862 g | Ratio (colon length/colon weight) (Group 1, 20 mg/kg PO daily): 1.315 cm/g and 1.311 cm/g and 3.302 cm/g and 2.236 cm/g and 1.389 cm/g and 1.325 cm/g and 2.177 cm/g and 2.262 cm/g | Ulcer Length (Group 1, 20 mg/kg PO daily): 6.0 cm (3×) and 6.3 cm and 7.0 cm and 5.5 cm and 6.8 cm and 6.5 cm | Wall Thickness (Group 1, 20 mg/kg PO daily): 3.5 mm and 3.2 mm and 4.0 mm (2×) and 3.7 mm (2×) and 2.5 mm (2×) | Colon Wall Thickness, score (Group 1, 20 mg/kg PO daily): 2 (6×) and 1 (2×) | Ulcers, score (Group 1, 20 mg/kg PO daily): 3 | Strictures (Group 1, 20 mg/kg PO daily): 3 (7×) and 2 | Adhesions (Group 1, 20 mg/kg PO daily): 1 (4×) and 2 (4×) | Colonic Score (Group 1, 20 mg/kg PO daily): 9 (2×) and 10 (4×) and 8 and 7 | # Ulcers (Group 2, 60 mg/kg PO daily): 1 | Colon Length (Group 2, 60 mg/kg PO daily): 15.0 cm (5×) and 14.5 cm and 14.0 cm and 11.5 cm | Colon Weight (Group 2, 60 mg/kg PO daily): 2.551 g and 1.969 g and 6.164 g and 5.418 g and 9.037 g and 4.831 g and 4.140 g and 2.719 g | Ratio (colon length/colon weight) (Group 2, 60 mg/kg PO daily): 5.880 cm/g and 7.618 cm/g and 2.352 cm/g and 2.769 cm/g and 1.549 cm/g and 3.105 cm/g and 3.623 cm/g and 4.229 cm/g | Ulcer Length (Group 2, 60 mg/kg PO daily): 3.5 cm and 4.0 cm and 6.0 cm (2×) and 6.5 cm (2×) and 6.7 cm and 5.5 cm | Wall Thickness (Group 2, 60 mg/kg PO daily): 2.0 mm (4×) and 3.0 mm (2×) and 4.0 mm and 2.5 mm | Colon Wall Thickness, score (Group 2, 60 mg/kg PO daily): 1 (7×) and 2 | Ulcers, score (Group 2, 60 mg/kg PO daily): 3 | Strictures (Group 2, 60 mg/kg PO daily): 1 (2×) and 0 and 3 (5×) | Adhesions (Group 2, 60 mg/kg PO daily): 0 (2×) and 2 (4×) and 1 (2×) | Colonic Score (Group 2, 60 mg/kg PO daily): 5 and 4 and 9 (3×) and 8 and 10 and 6 | Rat Weight [3]: 217 g and 215 g and 214 g and 222 g and 208 g and 211 g and 220 g (2×) | Rat Weight [4]: 206 g and 202 g and 213 g (2×) and 207 g and 203 g (2×) and 212 g | Rat Weight [5]: 205 g and 199 g and 204 g and 200 g (2×) and 195 g and 206 g and 193 g | Rat Weight [6]: 199 g and 200 g (2×) and 197 g and 196 g and 184 g (2×) and 183 g | Rat Weight [7]: 192 g and 212 g and 200 g (2×) and 193 g and 179 g and 183 g and 176 g | Rat Weight [8]: 196 g and 226 g and 191 g and 192 g and 182 g and 174 g and 199 g and 171 g | Rat Weight [9]: 207 g and 233 g and 193 g and 197 g and 184 g and 172 g and 199 g and 171 g | Rat Weight [10]: 220 g and 244 g and 187 g and 189 g and 178 g and 169 g and 196 g and 181 g | Rat Weight [11]: 214 g and 212 g and 215 g and 219 g and 208 g and 210 g and 220 g (2×)
